Measured values as given in patent US20250268876A1, “TREATMENT OF HIDRADENITIS SUPPURATIVA WITH ORISMILAST” (UNION THERAPEUTICS A/S, priority 2021, published 2025).
Several values for one entry are separate records, joined by “and”; a condition that tells them apart may be missing. Equal values may be shown once. Read-outs that look alike come from different tables or passages of the source.

Columns and labels:
[1] = target: PDE4D3 (Homo sapiens, UniProt Q08499); assay: IMAP fluorescence polarisation PDE4 subtype assay; assay type: biochemical; settings: compound 10^−7 M
[2] = tested on: TNF-α release from human peripheral blood mononuclear cells; assay: TNF-α release, serum-free, hPBMC, LPS; assay type: cell-based; settings: PBMC, 18 hours
Procedure: TNF-α, Serumfree, hPBMC, LPS
Cultures of human PBMC isolated from buffy coats were stimulated with lipopolysaccharide to activate the monocytes and to release TNF-α. PBMC were isolated from fresh buffy coats and frozen for later use. On the assay day, cells were thawed, washed in serum free medium (RPMI1640 with 25 mM HEPES, 1% pen/strep, […] L glutamine and 0.5% human serum albumin) and living cells were counted. Test compounds were diluted in DMSO and further diluted in serum-free medium and pipetted into wells of 384 well tissue culture plates. LPS was added to the cells which shortly thereafter were added to the wells with titrated test compounds and incubated for 18 hours at 37° C. The next day, the level of TNF-α in the culture supernatant was quantitated by homogenous time-resolved fluorescence (HTRF) where FRET was measured at 665 nm and normalized to the fluorescence of europium cryptate at 620 nm. The effect (inhibition of TNF-α release) of a test compound was calculated using equation 1: […]
Fluorescence intensities, measured at 665 nm and 620 nm, were used to calculate the 665/620 ratio as an estimate of the level of secreted TNF-α. Sx denotes the 665/620 ratio associated with the test compound. So and Sc denote the 665/620 ratios associated with 0.1% DMSO and 1E-05 M compound (II), respectively.
(§1) This model describes a sigmoidal curve with an adjustable baseline, a. […]

[3] = target: PDE4B2 (Homo sapiens, UniProt Q07343); assay: IMAP fluorescence polarisation PDE4 subtype assay; assay type: biochemical
Procedure: Inhibition of PDE4 subtypes by the compound of formula (I) was tested using IMAP technology, which is based on the high affinity binding of phosphate by immobilized metal coordination complexes on nanoparticles. The binding reagent complexes with phosphate groups on nucleotide monophosphate generated from cyclic nucleotides (cAMP/cGMP) through phosphodiesterases. With fluorescence polarisation detection, binding causes a change in the rate of the molecular motion of the phosphate bearing molecule, and results in an increase in the fluorescence polarization value observed for the fluorescent label attached to the substrate.
Stocks of the compound of formula (I) were prepared in 100% DMSO. All assays were performed in 3% (final) DMSO for the IMAP assay. The compound was tested in duplicate against the PDE isoform panel at a range of concentrations (10^−10, 10^−9, 10^−8, 10^−7 M).

[4] = target: PDE4A10 (Homo sapiens, UniProt P27815); assay: biochemical
[5] = tested on: IFN-γ; assay: Human whole blood cytokine secretion assay (TruCulture); assay type: cell-based; settings: read-out: % inhibition at 20 nM, IFN-γ, mean of 3 experiments
Procedure: (§2) TruCulture blood collection and incubation tubes were tested with fresh human whole blood with or without addition of 20 nM of the compound of formula (I). The best results were obtained using heparin-stabilised blood and anti-CD3/CD28 test tubes.

[6] = tested on: IL-4; assay: as above; assay type: cell-based; settings: read-out: % inhibition at 20 nM, IL-4, mean of 3 experiments
Procedure: as §2

[7] = tested on: IL-8; assay: as above; assay type: cell-based; settings: 20 nM
Procedure: as §2

[8] = tested on: IL-2; assay: as above; assay type: cell-based; settings: read-out: % inhibition at 20 nM, IL-2, mean of 3 experiments
Procedure: as §2

[9] = tested on: TNF-α; assay: as above; assay type: cell-based; settings: read-out: % inhibition at 20 nM, TNF-α, mean of 3 experiments
Procedure: as §2

[10] = tested on: IL-13; assay: as above; assay type: cell-based; settings: 20 nM
Procedure: as §2

[11] = tested on: IL-1; assay: as above; assay type: cell-based; settings: read-out: % inhibition at 20 nM, IL-1, mean of 3 experiments
Procedure: as §2

[12] = tested on: TNF-α secretion from human whole blood; assay: Whole blood TNF-α secretion assay (LPS or SEB); assay type: cell-based; settings: for times more potent than Roflumilast / times more potent than apremilast: mean EC50 values; for Emax / EC50: Homo sapiens; for Emax: read-out: Emax
[13] = target: PDE4C2 (Homo sapiens, UniProt Q08493); assay: IMAP fluorescence polarisation PDE4 subtype assay; assay type: biochemical
[14] = in vivo; settings: ferret, po
[15] = tested on: human PBMC; assay: Viability, serum-free, hPBMC, LPS (ATP); assay type: cell-based
Procedure: Viability, Serum-Free, hPBMC, LPS
The viability of the cells from the TNF-α assay is measured in the wells using the ATP vialight kit (Perkin Elmer, ATP-lite M, cat. no 6016949). The assay detects the amount of ATP using a bioluminescent method that utilizes an enzyme, luciferase, which catalyses the formation of light from ATP and luciferin according to the following reaction:
The emitted light intensity is linearly related to the ATP concentration and is measured using a luminometer. The effect (inhibition of viability) of a test compound was calculated using equation 1:
[formula] • where • So=Emitted light intensity reflecting the ATP concentration in the presence of 0.1% DMSO, • Sc=Emitted light intensity reflecting the ATP concentration in the presence of 10 μM Actinomycin in 0.1% DMSO and • Sx=Emitted light intensity reflecting the ATP concentration in the presence of test compound in 0.1% DMSO.
as §1
[formula] • where • C=concentration of test compound • % Effect=normalized response calculated as described in Equation 1 • Emin=min response as compound concentration approaches 0 • Emax=max response as concentration of tested compound is increasing • EC50=Concentration of tested compound giving a response in the middle of Emin and Emax • nH=Hill coefficient or curve slope.

Chain of PDE4B2 (Q07343 1-564 isoform Q07343-2): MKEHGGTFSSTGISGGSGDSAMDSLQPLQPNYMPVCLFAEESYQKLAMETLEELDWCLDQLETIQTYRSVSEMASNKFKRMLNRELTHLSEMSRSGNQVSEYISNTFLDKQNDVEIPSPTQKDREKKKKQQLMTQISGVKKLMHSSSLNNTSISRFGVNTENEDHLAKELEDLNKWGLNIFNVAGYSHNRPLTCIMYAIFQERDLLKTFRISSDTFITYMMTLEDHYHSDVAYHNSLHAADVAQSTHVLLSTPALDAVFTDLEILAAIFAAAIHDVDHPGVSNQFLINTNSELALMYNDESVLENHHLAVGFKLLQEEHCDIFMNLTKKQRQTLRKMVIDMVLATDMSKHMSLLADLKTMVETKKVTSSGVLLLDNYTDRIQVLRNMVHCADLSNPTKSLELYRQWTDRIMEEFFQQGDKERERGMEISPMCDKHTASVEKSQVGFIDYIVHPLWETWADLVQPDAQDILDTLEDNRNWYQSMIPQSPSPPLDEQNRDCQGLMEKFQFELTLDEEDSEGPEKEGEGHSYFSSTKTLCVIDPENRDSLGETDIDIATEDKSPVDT
Chain of PDE4C2 (Q08493 107-712): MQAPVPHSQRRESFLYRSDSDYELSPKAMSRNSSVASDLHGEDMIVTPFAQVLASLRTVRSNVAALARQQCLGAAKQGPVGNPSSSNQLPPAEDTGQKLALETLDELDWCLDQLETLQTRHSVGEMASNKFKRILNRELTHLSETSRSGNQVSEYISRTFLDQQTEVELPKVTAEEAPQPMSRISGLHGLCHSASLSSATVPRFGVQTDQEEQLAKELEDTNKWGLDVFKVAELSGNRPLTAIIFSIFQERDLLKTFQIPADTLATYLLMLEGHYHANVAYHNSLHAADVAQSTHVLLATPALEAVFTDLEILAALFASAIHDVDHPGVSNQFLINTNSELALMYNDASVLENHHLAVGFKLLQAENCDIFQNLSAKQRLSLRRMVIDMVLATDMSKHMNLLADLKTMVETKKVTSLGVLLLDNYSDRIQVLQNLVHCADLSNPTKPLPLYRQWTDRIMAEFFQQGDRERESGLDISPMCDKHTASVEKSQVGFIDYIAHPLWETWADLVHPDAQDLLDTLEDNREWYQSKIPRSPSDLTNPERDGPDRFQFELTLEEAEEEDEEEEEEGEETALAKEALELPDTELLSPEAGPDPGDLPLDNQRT
Chain of PDE4D3 (Q08499 1-673 isoform Q08499-2): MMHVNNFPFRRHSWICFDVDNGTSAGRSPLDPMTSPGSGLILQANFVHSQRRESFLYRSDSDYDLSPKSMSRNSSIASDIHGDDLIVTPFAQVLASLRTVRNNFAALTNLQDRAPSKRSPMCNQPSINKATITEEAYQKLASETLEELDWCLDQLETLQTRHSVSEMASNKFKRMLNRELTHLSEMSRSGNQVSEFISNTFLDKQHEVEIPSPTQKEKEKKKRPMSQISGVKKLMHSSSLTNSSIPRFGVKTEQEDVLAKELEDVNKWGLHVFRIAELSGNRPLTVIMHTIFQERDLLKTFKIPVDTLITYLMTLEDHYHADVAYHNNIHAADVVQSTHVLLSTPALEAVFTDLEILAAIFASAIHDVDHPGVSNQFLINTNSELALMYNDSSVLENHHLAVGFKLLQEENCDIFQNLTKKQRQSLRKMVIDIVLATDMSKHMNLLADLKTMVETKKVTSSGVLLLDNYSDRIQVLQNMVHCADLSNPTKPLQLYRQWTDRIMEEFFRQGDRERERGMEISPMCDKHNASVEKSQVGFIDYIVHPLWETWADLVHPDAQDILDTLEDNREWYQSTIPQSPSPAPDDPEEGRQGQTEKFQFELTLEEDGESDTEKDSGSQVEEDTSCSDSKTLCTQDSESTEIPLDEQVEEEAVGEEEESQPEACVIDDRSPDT
Chain of PDE4A10 (P27815 1-825 isoform P27815-6): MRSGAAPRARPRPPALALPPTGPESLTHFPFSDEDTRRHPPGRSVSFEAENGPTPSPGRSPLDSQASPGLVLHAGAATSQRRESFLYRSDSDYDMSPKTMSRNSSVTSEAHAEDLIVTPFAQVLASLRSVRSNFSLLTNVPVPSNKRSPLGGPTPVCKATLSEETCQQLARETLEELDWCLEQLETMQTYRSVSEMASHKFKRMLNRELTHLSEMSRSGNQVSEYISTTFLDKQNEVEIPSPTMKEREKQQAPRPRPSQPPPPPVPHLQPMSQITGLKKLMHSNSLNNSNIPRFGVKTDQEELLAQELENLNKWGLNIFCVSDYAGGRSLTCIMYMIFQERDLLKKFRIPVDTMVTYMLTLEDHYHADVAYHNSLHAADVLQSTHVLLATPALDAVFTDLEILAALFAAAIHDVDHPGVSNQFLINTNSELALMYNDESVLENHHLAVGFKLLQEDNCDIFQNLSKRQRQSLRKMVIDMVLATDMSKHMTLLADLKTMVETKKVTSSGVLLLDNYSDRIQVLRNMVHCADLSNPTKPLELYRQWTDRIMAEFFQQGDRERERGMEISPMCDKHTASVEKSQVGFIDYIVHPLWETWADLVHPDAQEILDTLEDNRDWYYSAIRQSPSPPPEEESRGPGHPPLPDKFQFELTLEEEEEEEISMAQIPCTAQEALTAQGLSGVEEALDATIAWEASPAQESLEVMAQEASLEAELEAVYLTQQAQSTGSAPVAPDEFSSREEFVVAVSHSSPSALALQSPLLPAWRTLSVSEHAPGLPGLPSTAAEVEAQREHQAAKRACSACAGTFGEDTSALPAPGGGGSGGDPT

**Q.** For `O=C(Cc1c(Cl)c[n+]([O-])cc1Cl)c1ccc(OC(F)F)c2c1OC1(CCS(=O)(=O)CC1)O2` [Compound (I), 2-(3,5-Dichloro-1-oxido-pyridine-4-yl)-1-(7-difluoro-methoxy-2′,3′,5′,6′-tetrahydro-spiro[1,3-benzodioxole-2,4′-(4H)-thiopyran-1′,1′-dioxide]-4-yl)ethanone], which inhibition at 0.1 µM [1] is on record?
**A.** The inhibition at 0.1 µM was 74%.

**Q.** What about the EC50 [2] of the same molecule?
**A.** The EC50 was 0.0114 µM.

**Q.** What about the Emax [2] of the same molecule?
**A.** The Emax was 102%.

**Q.** And the inhibition at 0.1 µM ([3]; compound 10^−7 M)?
**A.** Its inhibition at 0.1 µM is 61%.

**Q.** What about the inhibition at 0.01 µM ([3]; compound 10^−8 M) of the same molecule?
**A.** Its inhibition at 0.01 µM is 41%.

**Q.** What about the inhibition at 0.001 µM ([3]; compound 10^−9 M) of the same molecule?
**A.** Its inhibition at 0.001 µM is 18%.

**Q.** What about the inhibition at 0.0001 µM ([3]; compound 10^−10 M) of the same molecule?
**A.** The inhibition at 0.0001 µM was 12%.

**Q.** What about the IC50 [4] of the same molecule?
**A.** Its IC50 is 0.052 µM.

**Q.** What about the inhibition at 0.02 µM [5] of the same molecule?
**A.** Its inhibition at 0.02 µM is 54%.

**Q.** What about the inhibition at 0.02 µM [6] of the same molecule?
**A.** Its inhibition at 0.02 µM is 44%.

**Q.** What about the “Inhibition of IL-8 secretion (in words)” value [7] of the same molecule?
**A.** The value was “not clearly inhibited”.

**Q.** What about the inhibition at 0.02 µM [8] of the same molecule?
**A.** Its inhibition at 0.02 µM is 50%.

**Q.** And the inhibition at 0.02 µM [9]?
**A.** The inhibition at 0.02 µM was 60%.

**Q.** What about the “Inhibition of IL-13 secretion (in words)” value [10] of the same molecule?
**A.** Its value is “not clearly inhibited”.

**Q.** And the inhibition at 0.02 µM [11]?
**A.** Its inhibition at 0.02 µM is 40%.

**Q.** And the “times more potent than Roflumilast” value ([12]; (M))?
**A.** Its value is 1.7 times.

**Q.** And the “times more potent than Roflumilast” value ([12]; (ng/mL))?
**A.** The value was 1.4 times.

**Q.** What about the Emax ([12]; 24 h, LPS 1 μg/mL, 24 hours, donor 1, Emax defined as TNF-α level in un-stimulated wells) of the same molecule?
**A.** The Emax was 76%.

**Q.** What about the EC50 ([12]; 24 h, LPS 1 μg/mL, 24 hours, donor 1, read-out: EC50) of the same molecule?
**A.** Its EC50 is 0.00534 µM.

**Q.** What about the EC50 ([12]; 24 h, LPS 1 μg/mL, 24 hours, donor 2, read-out: EC50) of the same molecule?
**A.** Its EC50 is 0.0184 µM.

**Q.** And the Emax ([12]; 24 h, LPS 1 μg/mL, 24 hours, donor 2)?
**A.** Its Emax is 79%.

**Q.** What about the EC50 ([12]; 24 h, SEB 1 μg/mL, 24 hours, donor 1, read-out: EC50) of the same molecule?
**A.** Its EC50 is 0.00493 µM.

**Q.** What about the Emax ([12]; 24 h, SEB 1 μg/mL, 24 hours, donor 1) of the same molecule?
**A.** Its Emax is 97%.

**Q.** What about the EC50 ([12]; 24 h, SEB 1 μg/mL, 24 hours, donor 2, read-out: EC50) of the same molecule?
**A.** The EC50 was 0.0249 µM.

**Q.** What about the Emax ([12]; 24 h, SEB 1 μg/mL, 24 hours, donor 2) of the same molecule?
**A.** Its Emax is 66%.

**Q.** And the EC50 ([12]; 48 h, LPS 1 μg/mL, 48 hours, donor 1, read-out: EC50)?
**A.** Its EC50 is 0.0121 µM.

**Q.** And the Emax ([12]; 48 h, LPS 1 μg/mL, 48 hours, donor 1)?
**A.** The Emax was 71%.

**Q.** And the EC50 ([12]; 48 h, LPS 1 μg/mL, 48 hours, donor 2, read-out: EC50)?
**A.** Its EC50 is 0.0198 µM.

**Q.** And the Emax ([12]; 48 h, LPS 1 μg/mL, 48 hours, donor 2)?
**A.** Its Emax is 80%.

**Q.** What about the EC50 ([12]; 48 h, SEB 1 μg/mL, 48 hours, donor 1, read-out: EC50) of the same molecule?
**A.** The EC50 was 0.00466 µM.

**Q.** What about the Emax ([12]; 48 h, SEB 1 μg/mL, 48 hours, donor 1) of the same molecule?
**A.** The Emax was 98%.

**Q.** What about the EC50 ([12]; 48 h, SEB 1 μg/mL, 48 hours, donor 2, read-out: EC50) of the same molecule?
**A.** The EC50 was 0.0478 µM.

**Q.** And the Emax ([12]; 48 h, SEB 1 μg/mL, 48 hours, donor 2)?
**A.** Its Emax is 83%.

**Q.** What about the EC50 ([12]; mean of 8 determinations (LPS and SEB, 24 and 48 hours, 2 donors), read-out: Geometric mean of EC50 values across different assay parameters) of the same molecule?
**A.** Its EC50 is 12.6 nM and 0.00643 µg/mL.

**Q.** And the “Potency compared with roflumilast-N-oxide (in words)” value ([12]; LPS and SEB-induced TNF-α secretion)?
**A.** Its value is “equipotent to—or slightly more potent than”.

**Q.** What about the “times more potent than apremilast” value ([12]; based on molar concentrations) of the same molecule?
**A.** The value was 23 times.

**Q.** And the “times more potent than apremilast” value ([12]; based on ng/mL concentrations)?
**A.** Its value is 21 times.

**Q.** What about the “Inhibition (%)” value ([13]; compound 10^−7 M (100 nM)) of the same molecule?
**A.** The value was “not significantly inhibited”.

**Q.** And the inhibition at 0.0001 µM ([13]; compound 10^−10 M)?
**A.** Its inhibition at 0.0001 µM is 9%.

**Q.** What about the NOAEL at 3 h [14] of the same molecule?
**A.** The NOAEL at 3 h was 3 mg/kg.

**Q.** What about the “Viability Emax, %” value [15] of the same molecule?
**A.** Its value is 7%.

**Q.** And the EC50 ([15]; Homo sapiens, PBMC)?
**A.** The EC50 was > 9.99 µM.
